Test results published in patent US20200385396A1, “Compond for treatment or prevention of obesity or diseases related to obesity, and application thereof” (SHANGHAI INSTITUTES FOR BIOLOGICAL SCIENCES, CHINESE …, priority 2017, published 2020).

Key:
db/db mice and DIO mice = test: Long-term administration, weight loss in db/db mice and DIO mice; assay type: in vivo, mouse
normal mice = test: Food intake of mice after single intraperitoneal injection; assay type: in vivo, mouse; conditions: 20 mg/kg intraperitoneal; 0-3 h, 0-6 h, 0-12 h, 0-24 h
Experimental: Mice were intraperitoneally injected with DMSO or HLY72 (dissolved in DMSO) 25 μL within 2 hours before turning off the lamp. During the intragastric experiment, the high concentration of HLY72 dissolved in DMSO was dissolved in 10% cyclodextrin, and the total volume was 100 μL Volume by gavage, so that the final concentration of DMSO was less than 10%. The diet was weighed at the 3rd hour, the 6th hour, the 12th hour, and the 24th hour respectively after the lights out. The corresponding mouse body weight was also weighed at the same time before the daily administration. The fat content of mice was measured with the magnetic resonance fat content measuring instrument of the animal platform in SIBCB.
The next question we are very concerned about is whether HLY78 has similar functions to NUCB2 protein in mice. Up to now, the most classic function reported for NUCB2 protein is to reduce the food intake of mice at night. Therefore, the experiment was designed: 20 mg/kg of HLY78 was injected intraperitoneally within two hours before turning off the lights at night, and then the food intake of the mice was measured at different time points (0-3 h, 0-6 h, 0-12 h, 0-24 h). […] During the three days of the adaptive injection period before HLY78 injection, both groups of mice were injected with DMSO. On the day of injection of HLY78 and the two days before the injection of DMSO, the body weight of the two groups of mice is also the same (FIG. 2b).
Next, two small molecules HLY72 and HLY103 were selected to perform functional experiments on the food intake in mice.

NUCB2 protein [1] = biological target: T1, NUCB2 protein (Mus musculus, UniProt P81117); test: In vitro binding experiment (streptavidin-agarose pull-down, Western blot) of biotin-linked small molecules with full-length NUCB2; conditions: mouse full-length NUCB2 expressed in E. coli
T1 construct: Immediately the mouse full-length NUCB2 protein expressed in E. coli was purified; His tag (inferred from pET-28A vector, Ni-NTA purification and His antibody); made in house; host or cells: E. coli BL21-CodonPlus (DE3)
T1 sequence (P81117 25-420): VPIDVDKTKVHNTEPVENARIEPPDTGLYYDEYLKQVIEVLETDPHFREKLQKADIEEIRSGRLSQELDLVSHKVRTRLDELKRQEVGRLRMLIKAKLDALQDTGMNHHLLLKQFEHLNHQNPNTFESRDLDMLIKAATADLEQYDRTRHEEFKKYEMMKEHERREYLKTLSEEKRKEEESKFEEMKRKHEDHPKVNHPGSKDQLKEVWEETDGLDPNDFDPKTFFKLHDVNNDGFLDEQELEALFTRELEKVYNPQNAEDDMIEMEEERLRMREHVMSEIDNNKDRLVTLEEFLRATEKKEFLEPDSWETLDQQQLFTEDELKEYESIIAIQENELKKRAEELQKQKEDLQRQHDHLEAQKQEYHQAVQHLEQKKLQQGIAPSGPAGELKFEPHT
Experimental: (§1) When doing the combining experiments, (1) pre-treating Streptavidin-Agarose, washing Streptavidin-Agarose Beads with IP buffer, and spinning it on the rotor for 10 minutes. (2) Re-binding small molecules HLY179 (20 μM) and Streptavidin-Agarose Beads, spinning it in a refrigeration house at 4° C. for 1-2 hours. (3) When the previous step was performed for about 1 hour, the protein was pre-cleared at the same time, and the protein and the washed Streptavidin-Agarose were rotated in a refrigeration house at 4° C. for 30 minutes. (4) the Streptavidin-Agarose Beads binded with HLY179 was centrifuged, the supernatant was removed, washed again with 600 μL of IP buffer (rotated at 4° C. for 3 minutes), centrifuged, and the supernatant was removed carefully. (5) the pre-cleard protein was added and rotated in a refrigeration house at 4° C. for 2 hours. Washd twice with IP buffer 800 μL, 2 minutes each time (all rotated in a refrigeration house at 4° C.). After the last wash, the supernatant was removed, 40 μL of 2*loading was added and cooked for 10 minutes, stored at −20° C. When doing competitive binding experiments, in the third step while pre-treating the protein adding different small molecule compounds, the final concentration was 100 μM, and the rest was the same. Western Blot: Preparing the appropriate concentration of SDS-PAGE gel, adding protein sample for electrophoretic separation. […]

Wnt signal = test: TOPFlash reporter gene activity test in HEK293T cells; assay type: cell-based
Experimental: The HEK293T cells used for the measurement of reporter gene activity were plated at 20 hours before transfection and cultured to about 50% coverage for the transfection. The transfection method was as described above. For HEK293T cells, transfection was performed according to 20 ng TOPFlash, 20 ng GFP and 460 ng lacZ per well, and Wnt3a or Nesfatin-1/NUCB2 protein was added at 18 hours after transfection to stimulate for 6-8 hours, and the cell was lysed with Boehringer Mannheim Luciferase Assay Kit (200 μl/well) for 15 minutes, 50 μl lysate was added in the fluorometer BIO-TEK Synergy2 (Gene Company Limited) to measure the GFP fluorescence intensity in the cell lysate as an internal standard, and then 20 μl luciferase substrate (Roche) was added for the reaction, the luciferase activity was detected in the chemiluminescence channel, and finally the GFP reading was used as an internal standard for homogenization.
We focus on the three small molecules HLY72, HLY103, and HSS49A (FIG. 3a). […] So that the first biochemical experiment design is: whether these three small molecules can compete for the binding of HLY179 to NUCB2 protein.

NUCB2 protein [2] = biological target: T1, NUCB2 protein; test: Competitive binding experiment: small molecules compete with Bio78 (HLY179) for NUCB2; conditions: competitor final concentration 100 μM; HLY179 20 μM
Experimental: as §1

binding of purified NUCB2 protein to small molecule (NUCB2 protein [1]): specifically binds
compete with Bio78 for binding to NUCB2 (NUCB2 protein [2]): can compete
SMILES: CCc1cccc2c1N(C)Cc1cc3c(cc1-2)OCO3 [HLY78]
weight loss effect (db/db mice and DIO mice): good weight loss effect
food intake of mice (normal mice): significantly reduce
activity of Wnt signal activation (Wnt signal): can synergistically activate
